Measured values taken from patent US8865750B2, “Small molecule inhibitors of RGS proteins” (The Regents of The University of Michigan, priority 2011, dated 2014).
“Also recorded” adds a separate entry of the source. Where two headings read alike, the source gives them in different places.

What was measured:
[1] = biological target: RGS8 (Homo sapiens (Human), UniProt P57771); test: FCPIA: Gαo binding to RGS8
Description: (§1) FCPIA Dose Response and Reversibility Experiments:

[2] = biological target: RGS16 (Homo sapiens (Human), UniProt O15492); test: FCPIA: Gαo binding to RGS16; settings: Table 7
Chain of RGS16 (O15492 whole entry, species assumed): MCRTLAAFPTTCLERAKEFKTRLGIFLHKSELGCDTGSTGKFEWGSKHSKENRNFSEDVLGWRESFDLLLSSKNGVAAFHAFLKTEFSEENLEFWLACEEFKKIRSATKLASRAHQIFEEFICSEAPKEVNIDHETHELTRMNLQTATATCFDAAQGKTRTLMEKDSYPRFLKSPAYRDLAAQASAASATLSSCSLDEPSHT
Experimental: as §1
(§2) FCPIA was performed as previously described using chemically biotinylated RGS proteins and AlexaFluor-532 labeled Gα0. (Roman et al., J Biomol Screen, 2009; Blazer, L. L., et al., Mol Pharmacol).
(§3) RGS/Gα binding studies: The binding of biotinylated RGS proteins to fluorescently labeled Gαo was measured by Flow Cytometry Protein Interaction Assay (FCPIA) method previously described (Roman et al., (2009) J Biomol Screen.; Blazer et al., (2010) Curr Protoc Cytom Chapter 13, Unit 13 11 11-15; Roman et al., (2007) Mol Pharmacol 71, 169-175) as were the measures of compound reversibility.

[3] = biological target: RGS7 (Homo sapiens (Human), UniProt P49802); test: FCPIA: Gαo binding to RGS7; settings: Table 7
Chain of RGS7 (P49802 whole entry, species assumed): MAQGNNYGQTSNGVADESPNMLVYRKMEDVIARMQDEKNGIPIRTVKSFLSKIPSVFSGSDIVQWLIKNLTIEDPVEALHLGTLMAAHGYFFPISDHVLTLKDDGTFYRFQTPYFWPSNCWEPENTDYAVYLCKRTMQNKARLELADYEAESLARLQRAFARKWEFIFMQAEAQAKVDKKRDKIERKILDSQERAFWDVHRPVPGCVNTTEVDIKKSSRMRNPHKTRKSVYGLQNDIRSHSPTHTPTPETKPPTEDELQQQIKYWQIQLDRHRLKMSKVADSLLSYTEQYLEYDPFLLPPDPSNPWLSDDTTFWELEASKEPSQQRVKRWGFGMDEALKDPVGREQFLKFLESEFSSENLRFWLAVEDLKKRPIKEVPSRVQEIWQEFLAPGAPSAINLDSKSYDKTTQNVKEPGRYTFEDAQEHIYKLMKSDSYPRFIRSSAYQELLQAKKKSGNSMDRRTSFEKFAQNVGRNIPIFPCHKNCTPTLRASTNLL
Experimental: as §1, §2, §3

[4] = biological target: T1, RGS4 (Homo sapiens (Human), UniProt P49798); test: Single turnover GTPase (GAP) assay, RGS4; format: biochemical
Experimental: Single Turnover GTPase Measurements:
Compounds were tested for the ability to inhibit the RGS4 and RGS8-stimulated increase in GTP hydrolysis by Gα0 as described previously (Roman, D. L., et al., Mol Pharmacol, 2007. 71(1): p. 169-75; Roof, R. A., et al., Chem Biol Drug Des, 2006. 67(4): p. 266-74).
Compounds were tested for the ability to inhibit the RGS4 and RGS8-stimulated increase in GTP hydrolysis by Gα0 as previously described (Roman, D. L., et al., Mol Pharmacol, 2007. 71(1): p. 169-75; Roof, R. A., et al., Chem Biol Drug Des, 2006. 67(4): p. 266-74).
Single-turnover GAP assay: Experiments were performed as previously described using purified his6-tagged Gαo (Blazer et al., Biochemistry 50, 3181-3192; Roof et al., (2008) Chem Biol Drug Des 72, 111-119).
Target sequence in this assay (P49798 52-205, species assumed): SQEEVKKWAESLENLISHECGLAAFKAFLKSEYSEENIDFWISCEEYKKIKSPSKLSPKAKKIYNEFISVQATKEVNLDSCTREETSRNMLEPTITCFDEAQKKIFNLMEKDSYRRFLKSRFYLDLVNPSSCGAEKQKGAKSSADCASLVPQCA

[5] = biological target: papain (Carica papaya (Papaya), UniProt P00784); test: biochemical; format: biochemical
Chain of papain (P00784 134-345): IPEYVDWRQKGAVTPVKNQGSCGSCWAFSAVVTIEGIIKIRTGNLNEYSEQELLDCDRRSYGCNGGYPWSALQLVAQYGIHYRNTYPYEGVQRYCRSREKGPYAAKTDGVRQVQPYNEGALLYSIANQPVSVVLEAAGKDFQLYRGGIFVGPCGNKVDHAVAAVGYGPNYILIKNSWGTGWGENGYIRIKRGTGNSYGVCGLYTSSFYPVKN
Description: Papain (Sigma-Aldrich, St. Louis, Mo.) activity was monitored by the increase in fluorescence caused by the liberation of fluorescein from autoquenched fluorescein-conjugated casein (AnaSpec, San Jose, Calif.).

[6] = Solubility experiments; format: physicochemical; settings: water; aqueous
Experimental: Compounds were diluted to 100 mM in DMSO and the further diluted to 500 μM in H2O, vortexed and centrifuged for 10 minutes at 13,000×g at ambient temperature.

[7] = system: HEK293 cells; test: Calcium mobilization induced by compound alone; format: cell-based;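 on Calcium transient (% 50014): percent of response to 10 µM reference CCG-50014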
How it was run: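 HEK-293 Flp-In TREx cells stably expressing muscarinic M3 receptor, with human RGS4 induced by 1 μg/mL doxycycline for 24-48 h, loaded with Fluo-4 for 30 min at 37° C. Compound added without carbachol; fluorescence followed for 120 s, quantified as area under curve or peak intensity.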

[8] = biological target: T1, RGS4; test: Carbachol Ca2+ mobilization, M3 HEK-293 cells with doxycycline-induced RGS4; format: cell-based
Experimental: Calcium Mobilization Experiments:
A stable cell line was developed based upon the HEK-293 Flp-In TREx cell line (Invitrogen, Carlsbad, Calif.) that stably express the muscarinic M3 receptor and have human RGS4 expression under doxycycline control. Cells were maintained in DMEM supplemented with 10% fetal bovine serum and Penicillin (100 units/ml)-Streptomycin (100 μg/ml) under 5% CO2 at 37° C. For experiments, cells were split into 96-well black, clear bottom, poly-D-lysine coated microtiter plates (Nunc, Cat. #152037) at a density of 20,000 cells/well in DMEM containing 10% fetal bovine serum and Penicillin (100 units/ml), Streptomycin (100 μg/ml). […] Compounds and/or carbachol were added to the wells and the fluorescence intensity was measured using a FlexStation (Molecular Devices, Sunnyvale, Calif.) plate reader. Data analysis was performed by calculating the area under the curve or maximal fluorescence intensity from a 120 second kinetic measurement.
Calcium signaling transients: A stable cell line was developed based upon the HEK-293 Flp-In TREx cell line (Invitrogen, Carlsbad, Calif.) that stably express the muscarinic M3 receptor and have human RGS4 expression under doxycycline control. […] Compounds and/or carbachol were added to the wells and the fluorescence intensity was measured using a FlexStation (Molecular Devices, Sunnyvale, Calif.) plate reader. […]
Target sequence in this assay (P49798 whole entry): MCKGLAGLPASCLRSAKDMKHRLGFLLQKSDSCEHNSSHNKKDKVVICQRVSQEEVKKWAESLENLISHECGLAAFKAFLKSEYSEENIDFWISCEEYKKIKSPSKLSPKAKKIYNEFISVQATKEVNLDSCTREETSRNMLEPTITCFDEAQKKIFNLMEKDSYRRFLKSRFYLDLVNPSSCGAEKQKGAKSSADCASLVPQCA

[9] = Heart rate and blood pressure in freely-moving rats; format: in vivo
Description: The muscarinic agonist carbachol can induce a transient bradycardic effect by activating M2 receptors in the SAN.

[10] = Tail suspension test; format: in vivo, mice
Description: This Example describes antidepressant activity of compounds of embodiments of the present invention. Antidepressant-like effects of CCG 203769: The tail suspension test in mice is a model of learned helplessness and is used as an assay for antidepressant medications. In this test antidepressant drugs (such as SSRIs) decrease the time the animals spend immobile by increasing escape-like behaviors.

[11] = system: muscarinic class of GPCRs; test: NIMH Psychoactive Drug Screening Program receptor panel
Experimental: (§4) Furthermore, the compound was tested against a panel of receptors via collaboration with the NIMH Psycoactive Drug Screening Program.

[12] = system: αAR; test: as above
Experimental: as §4

Chain of RGS8 (P57771 other isoform, or with tags, fused parts or gaps): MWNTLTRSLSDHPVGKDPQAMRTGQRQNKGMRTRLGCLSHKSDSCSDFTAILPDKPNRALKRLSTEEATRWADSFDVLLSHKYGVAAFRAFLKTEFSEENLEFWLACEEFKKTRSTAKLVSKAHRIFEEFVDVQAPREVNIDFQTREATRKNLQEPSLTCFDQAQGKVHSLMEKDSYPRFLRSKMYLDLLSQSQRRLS

SMILES: CCCCn1c(=O)sn(CC)c1=O [CCG-203769, 2-ethyl-4-butyl-1,2,4-thiadiazolidine-3,5-dione]
- RGS8 Hill Slope ([1]; Table 3): −0.56
- IC50 ([1]; Table 6, FCPIA, read-out: RGS8 IC50): 83.5 µM
- IC50 ([1]; Table 7, read-out: IC50 (μM), RGS8): 79 µM
- IC50 [2]: 6 µM
- IC50 [3]: > 100 µM
- inhibition of GAP activity of RGS4 [4]: potently inhibits the functional effect of RGS4
- inhibition of papain ([5]; 30 μM): unable to inhibit the protease activity of papain
- IC50 ([5]; Table 7): > 100 µM
- solubility [6]: > 5 mM
- induction of calcium transient by compound alone ([7]; 10 μM, HEK293 cells): no ability to induce calcium mobilization
- Emax at 10 µM ([7]; Homo sapiens, HEK293, read-out: Calcium transient (% 50014)): 2.7%
- lowest concentration with enhanced Ca2+ signaling [8]: 1 µM
- reversal of RGS4-mediated suppression of carbachol Ca2+ response ([8]; 15 min pretreatment, 1 and 3 μM): partially rescued; also recorded: partially reverse
- blood pressure, carbachol plus compound ([9]; 10 mg/kg IV + carbachol 0.1 mg/kg IP): does not reach statistical significance
- bradycardic effect of carbachol after compound ([9]; 10 mg/kg IV before carbachol 0.1 mg/kg IP): significantly potentiated
- effect upon blood pressure, compound alone ([9]; 10 mg/kg, IV): no significant effect
- effect upon heart rate, compound alone ([9]; 10 mg/kg, IV): no significant effect
- effect on immobility in RGS4 knockout mice ([10]; 10 mg/kg): lost
- immobility time ([10]; IP, significant effect at 10 mg/kg): decreases their immobility time in a dose-dependent manner
- effect upon muscarinic class of GPCRs [11]: little to no observable effect
- effect on αAR [12]: able to inhibit
